# Measurements: paper PMC9403976, “Elucidating the path to Plasmodium prolyl-tRNA synthetase inhibitors that overcome halofuginone resistance” (Nature Communications, 2022)
# Where “and” joins values, the source holds several entries; their conditions need not be identical. Equal entries are not always repeated.
# Key:
# [1] = tested on: HFGR-I P. falciparum (elevated proline homeostasis and PfcProRS^L482H); conditions: HFGR-I vs wild-type; cited from earlier work
# P. falciparum Dd2-2D4 [2] = conditions: halofuginone pressure; cited from earlier work
# [3] = tested on: luciferase-expressing P. berghei ANKA sporozoites; test: P. berghei liver stage assay in HuH7 cells (luciferase, Bright-Glo); format: cell-based, Plasmodium berghei; conditions: for Parasite Load, dose-response point: single replicates
# Method: (§1) HuH7 cells (Sigma, Cat#: 01042712, Lot:18H009) were cultured in DMEM + L-Glutamine (Gibco) supplemented with 10% (v/v) heat-inactivated FBS (Sigma) and 1% (v/v) antibiotic/antimycotic (Sigma). Hepatocyte cultures were maintained in a standard tissue culture incubator at 37 °C. Anopheles mosquitoes infected with luciferase-expressing P. berghei ANKA sporozoites were obtained from the Sporocore at the University of Georgia. Liver stage P. berghei assays were completed as previously described. Briefly, 4000 HuH7 cells were seeded into 384-well plates (Corning) 1 day prior to infection. Compounds (0–50 µM) were added in triplicate to wells before infection with 4000 P. berghei sporozoites. […] Relative fluorescence and luminescence signal intensities were normalized to the negative control, 1% DMSO. EC50 values were determined using PRISM (V. 8.4.3–9.1.0, GraphPad) through fitting data to a dose-response curve.
# HuH7 cells = test: HuH7 host hepatocyte viability (CellTiter-Fluor); format: cell-based, human; conditions: for HuH7 Growth, dose-response point: single replicates
# Method: as §1, with “infection.” for “infection. Compounds (0–50 µM) were added in triplicate to wells before infection with 4000 P. berghei sporozoites.”
# P. falciparum Dd2-2D4 [4] = test: P. falciparum ABS short-term resistance susceptibility assay; format: cell-based, Plasmodium falciparum; conditions: wild-type parasites under intermittent drug pressure
# Method: Following recrudescence, sensitivity to NCP26 and halofuginone was assayed using the ABS growth assay.
# P. falciparum Dd2-2D4 [5] = test: NCP26 resistance selection under intermittent drug pressure; format: cell-based, Plasmodium falciparum; conditions: 10^9 parasites
# Method: In short, parasites were treated with 4x EC50 NCP26 until no parasites were detected by giemsa staining microscopy. […] This cycle was repeated for ~50 generations (~100 days), corresponding to 5–6 cycles of drug pressure.
compound,measurement,setting,value
O=C(CC1NCCCC1O)Cn1cnc2cc(Br)c(Cl)cc2c1=O (centres unmarked) [Halofuginone],fold less sensitive (HFGR-I parasites),[1],~ 400 fold
same,generations until resistant parasites arise,P. falciparum Dd2-2D4 [2],< 5 generations
O=C(NC1Cc2ccccc2C1)c1nccnc1NC(=O)N1CCCCC1 [NCP26],"Parasite Load, dose-response point",[3]; Log[inhibitor] (M) -5.602,4.50E-01 and 4.96E-01 and 3.82E-01
same,"Parasite Load, dose-response point",[3]; Log[inhibitor] (M) -6.000,6.73E-01 and 1.77E+00 and 8.83E-01
same,"Parasite Load, dose-response point",[3]; Log[inhibitor] (M) -6.301,2.58E+00 and 1.62E+00 and 1.38E+00
same,"Parasite Load, dose-response point",[3]; Log[inhibitor] (M) -6.602,2.09E+01 and 4.21E+01 and 3.50E+01
same,"Parasite Load, dose-response point",[3]; Log[inhibitor] (M) -7.602,1.02E+02 and 9.26E+01 and 8.31E+01
same,"Parasite Load, dose-response point",[3]; Log[inhibitor] (M) -8.602,9.21E+01 and 5.24E+01 and 5.53E+01
same,"Parasite Load, dose-response point",[3]; Log[inhibitor] (M) -9.602,7.79E+01 and 6.82E+01 and 1.12E+02
same,"Parasite Load, dose-response point",[3]; Log[inhibitor] (M) -9.903,5.64E+01 and 9.94E+01 and 8.54E+01
same,EC50,"[3]; Plasmodium berghei, Huh-7, HuH7 cells infected with sporozoites, ~44 hpi",232 nM
same,EC50,"HuH7 cells; Homo sapiens, Huh-7, HuH7 cell viability, ~44 hpi",> 2500 nM
same,"HuH7 Growth, dose-response point",HuH7 cells; Log[inhibitor] (M) -5.602,6.24E+01 and 5.40E+01 and 5.94E+01
same,"HuH7 Growth, dose-response point",HuH7 cells; Log[inhibitor] (M) -6.000,6.34E+01 and 6.90E+01 and 6.75E+01
same,"HuH7 Growth, dose-response point",HuH7 cells; Log[inhibitor] (M) -6.301,6.99E+01 and 7.05E+01 and 6.37E+01
same,"HuH7 Growth, dose-response point",HuH7 cells; Log[inhibitor] (M) -6.602,7.89E+01 and 8.13E+01 and 7.81E+01
same,"HuH7 Growth, dose-response point",HuH7 cells; Log[inhibitor] (M) -7.602,9.65E+01 and 1.01E+02 and 8.52E+01
same,"HuH7 Growth, dose-response point",HuH7 cells; Log[inhibitor] (M) -8.602,9.96E+01 and 1.08E+02 and 9.36E+01
same,"HuH7 Growth, dose-response point",HuH7 cells; Log[inhibitor] (M) -9.602,1.01E+02 and 1.06E+02 and 1.03E+02
same,"HuH7 Growth, dose-response point",HuH7 cells; Log[inhibitor] (M) -9.903,1.05E+02 and 1.11E+02 and 1.08E+02
same,induction of rapid resistance,P. falciparum Dd2-2D4 [4],did not induce rapid resistance
same,resistance to NCP26 after selection,"P. falciparum Dd2-2D4 [5]; >50 generations (100 days), 2 out of 3 selections",20-to-80 fold
same,generations until resistance arises,P. falciparum Dd2-2D4 [5]; intermittent drug pressure,> 50 generations
